Results: patent publication US6514953B1, “Calcium (3S) tetrahydro-3-furanyl(1S,2R)-3-[[(4-aminophenyl)sulfonyl](isobutyl)amino]-1-benzyl-2-(phosphonooxy)propylcarbamate” (SmithKline Beecham Corporation, priority 1998, dated 2003)
Converted amounts (≈) assume the structure as drawn.

Test: physchem

CC(C)CN(C[C@@H](O)[C@H](Cc1ccccc1)NC(=O)O[C@H]1CCOC1)S(=O)(=O)c1ccc(N)cc1 (relative stereo) [amprenavir, [3S-[3R*(1R*,2S*)]]-[3-[[(4-aminophenyl)sulfonyl](2-methyl-propyl)amino]-2-hydroxy-1-phenylmethyl)propyl]-tetrahydro-3-furanyl ester, reference compound] gave a solubility (0.1N HCl, pH 1, simulated gastric fluid) of 290 µg/mL (≈ 574 µM) and a solubility (aqueous solution, pH 6.3, aqueous buffer) of 95 µg/mL (≈ 188 µM).
CC(C)CN(C[C@@H](OP(=O)([O-])[O-])[C@H](Cc1ccccc1)NC(=O)O[C@H]1CCOC1)S(=O)(=O)c1ccc(N)cc1.[Ca+2] [compound of formula (I), calcium (3S) tetrahydro-3-furanyl (1S,2R)-3-[[(4-aminophenyl)sulfonyl](isobutyl)amino]-1-benzyl-2-(phosphonooxy)propylcarbamate] showed a solubility (pH 1.47, simulated gastric fluid) of 3200 µg/mL, a solubility (pH 3.27, aqueous buffer) of 61100 µg/mL and a solubility (pH 4.11, aqueous buffer) of 9410 µg/mL. The solubility (pH 5.02, aqueous buffer) was 3200 µg/mL and the solubility (pH 6.27, aqueous buffer) was 531 µg/mL.
